Values joined by “and” are separate entries in the source; they are usually repeats but may differ in a detail not shown here. Equal entries are not always repeated. Structures can show the parent of a compound that is named as a salt.
How the values were obtained:
[1] = Body weight in the orthotopic pancreatic tumour model in nude mice; format: in vivo; settings: 25 days after tumour cell injection; gemcitabine 100 mg/kg i.p. twice weekly, ZD6126 75 mg/kg i.p. daily 5 days per week
Experimental: (§1) Nude mice (n=8 to 10 per group) were treated 9 days after injection of 1×10^6 L3.6pl cells into the pancreas, with gemcitabine alone (100 mg/kg by intraperitoneal injection (i.p.) twice weekly on treatment days 2, 5, 9, 12), ZD6126 alone (75 mg/kg i.p. daily for 5 days per week on treatment days 1-5 and 8-12), or a combination of both agents ie gemcitabine (100 mg/kg i.p. twice weekly) and ZD6126 (75 mg/kg i.p. daily for 5 days per week). Thus the combination group received ZD6126 on treatment days 1-5 and 8-12 and gemcitabine on treatment days 2 and 5 and 9 and 12. On the days where both agents were given, gemcitabine was dosed at least 1 hour before ZD6126. A control group of 10 mice received intraperitoneal injections of an equivalent volume of saline according to the same treatment schedule as the combination group. The animals were sacrificed 25 days after tumour cell injection.

L3.6pl cells = assay: Primary pancreatic tumour growth and metastases growing orthotopically in nude mice; format: in vivo; settings: gemcitabine 100 mg/kg i.p. twice weekly, ZD6126 75 mg/kg i.p. daily 5 days per week; for Liver Met: animals with liver metastases / animals in group; for Liver Met / LN Met / Peritoneal Carcinosis / Tumour Weight Average ± std dev: 25 days after tumour cell injection; for LN Met: animals with lymph node metastases / animals in group; for Incidence Pancreas: animals with pancreatic tumours / animals in group, sacrificed 25 days after tumour cell injection; for Peritoneal Carcinosis: animals with peritoneal carcinosis / animals in group; for Tumour Weight Average ± std dev: primary pancreatic tumour weight
Experimental: as §1, with “Model to Investigate Effects of ZD6126 and Gemcitabine Therapy on Primary Pancreatic Tumour Growth and Metastases Growing Orthotopically in Nude Mice Nude” for “Nude”, “injection. The incidence of pancreatic tumours, liver metastases, lymph node metastases and peritoneal carcinosis was evaluated. The primary pancreatic tumour weight was measured. All macroscopically enlarged lymph nodes and liver nodules were confirmed by histopathology (H&E staining).” for “injection.”

Row | SMILES | Body Weight Average ± std dev [1] [g] | Liver Met (L3.6pl cells) | LN Met (L3.6pl cells) | Incidence Pancreas (L3.6pl cells) | Peritoneal Carcinosis (L3.6pl cells) | Tumour Weight Average ± std dev (L3.6pl cells) | Tumour Weight Average ± std dev (L3.6pl cells; listed as gemcitabine) [mg]
1 | Nc1ccn([C@@H]2O[C@H](CO)[C@@H](O)C2(F)F)c(=O)n1 [Gemcitabine, 2′-deoxy-2′,2′-difluorocytidine monohydrochloride (β-isomer)] | 19.1 ± 2.2 | 2/10 | 10/10 | 10/10 | 1/10 | 687 ± 157 mg | 687
2 | COc1cc2c(c(OC)c1OC)-c1ccc(OP(=O)(O)O)cc1[C@@H](NC(C)=O)CC2 [ZD6126, N-acetylcolchinol-O-phosphate] | 18.5 ± 1.9 | 1/8 | 2/8 | 8/8 | 0/8 | 541 mg and 541 ± 201 mg | 
